In ChEMBL document CHEMBL4616598 (Bioorg Med Chem, 2020) one finds Ratio Ki and Ki data, which are given here for 36 molecules.

The term pKi denotes the negative decadic logarithm of the Ki, by convention in mol/L. A low value points to a large Ki.

For test [1], the species on record is Homo sapiens. Briefly: Selectivity ratio of Ki for displacement of [3H]-5-carboxamidotryptamine from human 5-HT1A receptor expressed in HEK293T cell membranes to Ki for displacement of [3H]-5-carboxamidotryptamine from human 5-HT7 receptor expressed in HEK293 cell membranes. (In general: Displacement assays read how much labelled ligand stays bound in the presence of the test substance.)

In test [2] the target is T1, 5-hydroxytryptamine receptor 1A (Homo sapiens, UniProt P08908).
T1 sequence (P08908 whole entry): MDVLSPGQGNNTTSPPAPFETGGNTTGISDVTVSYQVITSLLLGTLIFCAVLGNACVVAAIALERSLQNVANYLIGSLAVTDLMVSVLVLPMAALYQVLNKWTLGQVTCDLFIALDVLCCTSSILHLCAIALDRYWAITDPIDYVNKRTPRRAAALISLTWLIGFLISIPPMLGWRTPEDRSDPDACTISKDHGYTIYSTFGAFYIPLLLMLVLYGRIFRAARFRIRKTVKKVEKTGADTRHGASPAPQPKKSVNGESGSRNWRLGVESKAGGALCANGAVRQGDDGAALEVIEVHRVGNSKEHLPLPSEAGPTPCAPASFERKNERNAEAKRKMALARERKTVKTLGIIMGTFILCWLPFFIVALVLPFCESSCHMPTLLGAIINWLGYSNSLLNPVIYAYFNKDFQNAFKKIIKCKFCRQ
Briefly: Displacement of [3H]-5-carboxamidotryptamine from human 5-HT1A receptor expressed in HEK293T cell membranes incubated for 90 mins by scintillation counting method. Details: species or system HEK-293T.

Test [3] has as its target 5-hydroxytryptamine receptor 7 (Homo sapiens, UniProt P34969). Kind of test: Displacement of [3H]-5-carboxamidotryptamine from human 5-HT7A receptor expressed in HEK293 cell membranes incubated for 90 mins by scintillation counting method.

Molecules are shown by their SMILES. pKi: −log10 of the molar value.

5-hydroxytryptamine receptor 7, sequence (P34969 whole entry): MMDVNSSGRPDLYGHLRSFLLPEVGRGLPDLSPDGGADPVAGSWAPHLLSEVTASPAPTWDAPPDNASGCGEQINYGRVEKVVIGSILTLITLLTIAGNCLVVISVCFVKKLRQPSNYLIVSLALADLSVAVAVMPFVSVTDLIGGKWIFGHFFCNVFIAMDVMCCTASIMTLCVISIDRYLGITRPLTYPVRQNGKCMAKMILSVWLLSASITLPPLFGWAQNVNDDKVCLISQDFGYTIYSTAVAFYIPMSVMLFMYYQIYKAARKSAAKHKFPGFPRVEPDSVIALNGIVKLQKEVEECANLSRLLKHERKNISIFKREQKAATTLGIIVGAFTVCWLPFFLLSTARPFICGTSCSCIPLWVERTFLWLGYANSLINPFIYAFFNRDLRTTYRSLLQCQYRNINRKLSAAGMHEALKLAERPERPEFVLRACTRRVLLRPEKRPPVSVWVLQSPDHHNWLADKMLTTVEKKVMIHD

Regarding `CCCN(CCC)[C@H]1CCc2c(cccc2-c2ccccc2Cl)C1`, the Ratio Ki in test [1] was found to be 0.11. This molecule also had a pKi in test [2] of 9.19.

Regarding `Fc1ccccc1-c1cccc2c1CCC(N1CCCC1)C2` (racemic), in test [1], the Ratio Ki turned out to be 0.025.

Regarding `CN(C)[C@@H]1CCc2c(cccc2-c2ccco2)C1`, the Ratio Ki in test [1] was determined as 2.2. Also, the negative logarithm of the Ki (pKi) in test [3] was 5.59; in test [2], 5.25.

The molecule `CN(C)[C@@H]1CCc2c(cccc2-c2ccccc2F)C1` had a pKi in test [3] of 6.13.

With `CN(C)C1CCc2c(cccc2-c2cccc(Cl)c2)C1` (racemic), in test [1], the Ratio Ki was found to be 3.2. The pKi in test [3] is 7.59; in test [2], 7.09.

`CN(C)[C@@H]1CCc2c(cccc2-c2cccs2)C1`: the Ratio Ki in test [1] stood at 0.83. Besides, the pKi in test [3] was 6.74; in test [2], 6.82.

Consider `CCCN(CCC)[C@@H]1CCc2c(cccc2-c2ccccc2Cl)C1`, for which the Ratio Ki in test [1] was 0.33. In addition, the pKi in test [3] is 6.41; in test [2], 6.89.

Consider `CN(C)[C@H]1CCc2c(cccc2-c2ccccc2Cl)C1`, for which the Ratio Ki in test [1] was determined as 7.6.

On to `CN(C)[C@@H]1CCc2c(cccc2-c2cccn2C)C1`, for which, in test [1], the Ratio Ki turned out to be 0.92. This molecule also had a pKi in test [3] of 6.22.

Take `CN(C)[C@H]1CCc2c(cccc2-c2ccc(Cl)cc2)C1`: in test [1], the Ratio Ki came to 1.2. The values for the pKi in test [3] and in test [2] were 6.80 and 6.72, respectively.

For `CCCN(CCC)[C@H]1CCc2c(cccc2-c2ccccc2)C1`, in test [1], the Ratio Ki is 0.17.

Consider `Cc1nn(C)c(C)c1-c1cccc2c1CC[C@H](N(C)C)C2`, for which the Ratio Ki in test [1] turned out to be 20.

In the case of `CN(C)C1CCc2c(cccc2-c2ccc(F)cc2)C1` (racemic), in test [1], the Ratio Ki came to 0.26. For the same molecule, the values for the pKi in test [3] and in test [2] were 6.93 and 7.52, respectively.

In the case of `CN(C)[C@H]1CCc2c(cccc2-c2cccs2)C1`, the Ratio Ki in test [1] amounted to 0.26. Besides, the negative-log Ki (pKi) in test [3] was 7.77; in test [2] it was 8.35.

In the case of `CN(C)[C@H]1CCc2c(cccc2-c2cc(C(F)(F)F)cc(C(F)(F)F)c2)C1`, the Ratio Ki in test [1] came to 2.5. Besides, the pKi in test [2] is 5.65.

As to `CN(C)[C@H]1CCc2c(cccc2-c2cccc3ccccc23)C1`, the Ratio Ki in test [1] turned out to be 12.

On to `CN(C)C1CCc2c(cccc2-c2cccc(C(F)(F)F)c2)C1` (racemic), for which the Ratio Ki in test [1] was 2.9. The negative logarithm of the Ki (pKi) in test [2] is 6.74.

`CCCN(CCC)[C@H]1CCc2c(cccc2-c2ccccc2F)C1`: the Ratio Ki in test [1] is 0.34. The pKi is 8.28 in test [3] and 8.74 in test [2].

Regarding `CCCN(CCC)[C@@H]1CCc2c(cccc2-c2ccccc2)C1`, in test [1], the Ratio Ki amounted to 1.1. Also, the pKi is 6.72 in test [3] and 6.68 in test [2].

For `CN(C)[C@H]1CCc2c(cccc2-c2ccco2)C1`, the Ratio Ki in test [1] was determined as 0.46. In test [3], this molecule gave a negative-log Ki (pKi) of 7.15.

As for `CN(C)C1CCc2c(cccc2-c2cc(Cl)cc(Cl)c2)C1` (racemic), in test [1], the Ratio Ki was 5.5. Further, the values for the pKi in test [3] and in test [2] were 6.40 and 5.66, respectively.

`CN(C)[C@H]1CCc2c(cccc2-c2ccccc2)C1`: the Ratio Ki in test [1] is 0.66. Moreover, in test [3], the negative-log Ki (pKi) was 8.02.

As for `CCCN(CCC)[C@@H]1CCc2c(cccc2-c2ccccc2F)C1`, the Ratio Ki in test [1] was found to be 0.12. Besides, the pKi in test [3] is 6.13; in test [2] it was 7.04.

For the molecule `CN(C)C1CCc2c(cccc2-c2cccc3ccccc23)C1` (racemic), the Ratio Ki in test [1] came to 5.9. For the same molecule, the values for the negative-log Ki (pKi) in test [3] and in test [2] were 7.66 and 6.89, respectively.

Regarding `CN(C)C1CCc2c(cccc2-c2cccc(F)c2)C1` (racemic), the Ratio Ki in test [1] turned out to be 1.3. The negative-log Ki (pKi) in test [3] was 7.74; in test [2] it was 7.64.

Consider `CN(C)C1CCc2c(cccc2C2CCCC2)C1` (racemic), for which the Ratio Ki in test [1] was determined as 0.41. The molecule further showed a negative logarithm of the Ki (pKi) in test [2] of 7.01.

In the case of `CN(C)C1CCc2c(cccc2-c2cc(F)cc(F)c2)C1` (racemic), in test [1], the Ratio Ki was determined as 1.3. For the same molecule, the negative-log Ki (pKi) in test [2] is 6.64.

`CN(C)C1CCc2c(cccc2-c2c3ccccc3cc3ccccc23)C1` (racemic): in test [1], the Ratio Ki amounted to 3.1. For the same molecule, the negative-log Ki (pKi) in test [3] was 6.35; in test [2] it was 5.85.

With `CN(C)[C@@H]1CCc2c(cccc2-c2ccccc2)C1`, the Ratio Ki in test [1] stood at 0.21. The pKi in test [3] was 5.28; in test [2], 5.96.

On to `CN(C)[C@@H]1CCc2c(cccc2-c2ccc(Cl)cc2)C1`, for which the Ratio Ki in test [1] worked out at 0.23. In addition, the pKi in test [3] was 7.08; in test [2], 7.72.

On to `CN(C)C1CCc2c(cccc2-c2ccccc2Cl)C1` (racemic), for which the Ratio Ki in test [1] came to 3.3. Moreover, the pKi is 8.38 in test [3] and 7.85 in test [2].

Turning to `CN(C)[C@@H]1CCc2c(cccc2-c2cc(C(F)(F)F)cc(C(F)(F)F)c2)C1`, the negative-log Ki (pKi) in test [3] and in test [2] was under 5.00 each time.

For the molecule `CN(C)C1CCc2c(cccc2-c2ccc(F)cc2Cl)C1` (racemic), in test [1], the Ratio Ki is 2.1. Further, the negative logarithm of the Ki (pKi) is 7.80 in test [3] and 7.48 in test [2].

For the molecule `CN(C)C1CCc2c(cccc2-c2cncc3ccccc23)C1` (racemic), in test [1], the Ratio Ki stood at 6.7. The results for the negative logarithm of the Ki (pKi) in test [3] and in test [2] were 7.01 and 6.19, respectively.

In the case of `COc1cccc(-c2cccc3c2CCC(N(C)C)C3)c1` (racemic), the Ratio Ki in test [1] was 2.6. Further, the pKi in test [3] is 7.55; in test [2], 7.14.

For the molecule `CN(C)[C@H]1CCc2c(cccc2-c2cccn2C)C1`, the Ratio Ki in test [1] was 0.72. For the same molecule, the pKi in test [3] was 7.48; in test [2] it was 7.62.
